Experimental data published in US10323027B2, “2,3-dihydro-4H-1,3-benzoxazin-4-one derivatives as modulators of cholinergic muscarinic M1 receptor” (Takeda Pharmaceutical Company Limited, priority 2015, dated 2019).
Counter-ions that a name gives are not always drawn.

Legend:
[1] = target: T1, human M1 receptor (hCHRM1) (Homo sapiens, UniProt P11229); experiment: Measurement of M1 receptor positive allosteric modulator (M1PAM) activity, Ca2+ fluorescence by FDSS/μ cell (Experimental Example 2); assay type: cell-based; details: for activity (%) at 10 μM: 10 μM test compound, 100% = acetylcholine 1 μM, 0% = DMSO; for EC50: inflection point of concentration-dependent curve, in presence of acetylcholine at EC20 (0.8-1.0 nM), CHO-K1 cells expressing hCHRM1, read-out: IP value
T1 construct: expressed in transfected cells
T1 sequence (P11229 1-460): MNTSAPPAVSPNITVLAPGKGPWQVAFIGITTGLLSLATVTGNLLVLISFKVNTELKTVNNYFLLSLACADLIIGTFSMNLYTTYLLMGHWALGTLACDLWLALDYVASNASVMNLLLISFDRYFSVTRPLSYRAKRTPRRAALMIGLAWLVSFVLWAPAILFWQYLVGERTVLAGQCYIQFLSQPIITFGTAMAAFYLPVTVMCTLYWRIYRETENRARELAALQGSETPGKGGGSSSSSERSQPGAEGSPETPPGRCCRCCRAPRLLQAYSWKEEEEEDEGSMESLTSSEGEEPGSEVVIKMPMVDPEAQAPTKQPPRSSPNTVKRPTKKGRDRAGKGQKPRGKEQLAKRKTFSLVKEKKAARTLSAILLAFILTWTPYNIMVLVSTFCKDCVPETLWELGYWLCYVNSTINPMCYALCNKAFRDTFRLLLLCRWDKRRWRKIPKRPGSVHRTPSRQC
Experimental: Measurement of M1 Receptor Positive Allosteric Modulator (M1PAM) Activity
The activity of a test compound in the presence of acetylcholine at EC20 concentration (final concentration 0.8-1.0 nM), which affords an action corresponding to about 20% of the maximum activity, was measured as PAM activity. The method is as follows. CHO-K1 cells stably expressing a human M1 receptor (hCHRM1) were plated on a 384-well black clear bottom plate (BD Falcon) at 5,000 cells/well, and cultured in an incubator at 37° C., 5% CO2 for 1 day. The medium in the cell plate was removed, and a dye solution (prepared by adding Recording medium (DOJINDO LABORATORIES) to a final concentration of 1×concentration, Fluo-4 AM (DOJINDO LABORATORIES) to a final concentration of 2.5 μg/mL, Pluronic F127 (DOJINDO LABORATORIES) to a final concentration of 0.08%, and probenecid (DOJINDO LABORATORIES) to a final concentration of 1.25 mM to assay buffer (HBSS (Invitrogen), 20 mM HEPES (Invitrogen), 0.1% BSA (Wako Pure Chemical Industries, Ltd.))) was added at 30 μL/well. The cells were left standing in the incubator at 37° C., 5% CO2 for 30 min, and further left standing at room temperature for 30 min. A test compound prepared by diluting with assay buffer containing 3.2-4.0 nM acetylcholine was added at 10 μL/well, and the fluorescence was measured by FDSS/μ cell (Hamamatsu Photonics K.K.) for 1 min every 1 second. With the definition that the amount of change in the fluorescence on addition of acetylcholine (final concentration 1 μM) is 100% and that on addition of DMSO instead of a test compound is 0%, the activity (%) of the test compound was calculated, and the inflection point in the concentration-dependent curve of the test compound was calculated as IP values.

[2] = target: T1, human M1 receptor (hCHRM1); experiment: Measurement of M1 receptor positive allosteric modulator (M1PAM) activity, Ca2+ fluorescence by FLIPRtetra (Experimental Example 1); assay type: cell-based; details: for activity (%) at 10 μM: 10 μM test compound, 100% = acetylcholine 1 μM, 0% = DMSO; for EC50: inflection point of concentration-dependent curve, in presence of acetylcholine at EC20 (0.8-1.0 nM), CHO-K1 cells expressing hCHRM1, read-out: IP value
Outline: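 CHO-K1 cells stably expressing hCHRM1, loaded with Fluo-4 AM (probenecid), received compound with acetylcholine at EC20 (final 0.8-1.0 nM); Ca2+ fluorescence read 1 min by FLIPRtetra. Activity scaled 0% (DMSO) to 100% (1 μM acetylcholine); IP from inflection point of concentration curve.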

Row | SMILES | activity (%) at 10 μM [1] [%] | EC50 [1] [nM] | activity (%) at 10 μM [2] [%] | EC50 [2] [nM]
1 | Cc1cc2c(cc1Cc1ccc(-n3cccn3)nc1)C(=O)N([C@H]1CCCC[C@@H]1O)CO2 (single isomer, unassigned) [Example 95] | 102 | 13 |  | 
2 | Cc1c(Cc2ccc(-n3cccn3)nc2)cc2c(c1Cl)OCN([C@H]1CCC[C@@H]1O)C2=O (single isomer, unassigned) [Example 97, 8-chloro-3-(trans-2-hydroxycyclopentyl)-7-methyl-6-((6-(1H-pyrazol-1-yl)pyridin-3-yl)methyl)-2,3-dihydro-4H-1,3-benzoxazin-4-one (optical isomer: longer retention time)] | 99 |  |  | 
3 | Cc1cc2c(cc1Cc1ccc(-c3cn(C)nc3C)nc1)C(=O)N(CC1CCCO1)CO2 (centres unmarked) [Example 82, 6-((6-(1,3-dimethyl-1H-pyrazol-4-yl)pyridin-3-yl)methyl)-7-methyl-3-(tetrahydrofuran-2-ylmethyl)-2,3-dihydro-4H-1,3-benzoxazin-4-one] |  |  | 93 | 90
4 | Cc1ccc(Cc2cc3c(c(Cl)c2C)OCN(CC2CCCO2)C3=O)cn1 (centres unmarked) [Example 84, 8-chloro-7-methyl-6-((6-methylpyridin-3-yl)methyl)-3-(tetrahydrofuran-2-ylmethyl)-2,3-dihydro-4H-1,3-benzoxazin-4-one] |  |  | 93 | 96
5 | Cc1c(Cc2ccc(Cl)nc2)cc2c(c1Cl)OCN(CC1CCCO1)C2=O (centres unmarked) [Example 87, 8-chloro-6-((6-chloropyridin-3-yl)methyl)-7-methyl-3-(tetrahydrofuran-2-ylmethyl)-2,3-dihydro-4H-1,3-benzoxazin-4-one] |  |  | 93 | 160
6 | Cn1cc(-c2ccc(Cc3ccc4c(c3)C(=O)N(c3ccccc3F)CO4)cn2)cn1 [Example 88, 3-(2-fluorophenyl)-6-((6-(1-methyl-1H-pyrazol-4-yl)pyridin-3-yl)methyl)-2,3-dihydro-4H-1,3-benzoxazin-4-one] |  |  | 115 | 230
7 | Cc1c(Cc2ccc(-c3ccnc(F)c3)nc2)cc2c(c1F)OCN([C@H]1CCC[C@@H]1O)C2=O [Example 89, 8-fluoro-6-((2′-fluoro-2,4′-bipyridin-5-yl)methyl)-3-((1S,2S)-2-hydroxycyclopentyl)-7-methyl-2,3-dihydro-4H-1,3-benzoxazin-4-one] | 102 | 12 |  | 
8 | Cc1cc(-c2ccc(Cc3cc4c(c(F)c3C)OCN([C@H]3CCC[C@@H]3O)C4=O)cn2)ccn1 [Example 90, 8-fluoro-3-((1S,2S)-2-hydroxycyclopentyl)-7-methyl-6-((2′-methyl-2,4′-bipyridin-5-yl)methyl)-2,3-dihydro-4H-1,3-benzoxazin-4-one] | 102 | 4 |  | 
9 | CCn1ccc(-c2ccc(Cc3cc4c(c(F)c3C)OCN([C@H]3CCC[C@@H]3O)C4=O)cn2)n1 [Example 91, 6-((6-(1-ethyl-1H-pyrazol-3-yl)pyridin-3-yl)methyl)-8-fluoro-3-((1S,2S)-2-hydroxycyclopentyl)-7-methyl-2,3-dihydro-4H-1,3-benzoxazin-4-one] | 105 | 4 |  | 
10 | Cc1c(Cc2ccc(-c3ccn(C)n3)nc2)cc2c(c1F)OCN([C@H]1CCCC[C@@H]1O)C2=O [Example 92, 8-fluoro-3-((1S,2S)-2-hydroxycyclohexyl)-7-methyl-6-((6-(1-methyl-1H-pyrazol-3-yl)pyridin-3-yl)methyl)-2,3-dihydro-4H-1,3-benzoxazin-4-one] | 101 | 3.4 |  | 
11 | Cc1nn(C)cc1-c1ccc(Cc2cc3c(c(F)c2C)OCN([C@H]2CCC[C@@H]2O)C3=O)cn1 [Example 93, 6-((6-(1,3-dimethyl-1H-pyrazol-4-yl)pyridin-3-yl)methyl)-8-fluoro-3-((1S,2S)-2-hydroxycyclopentyl)-7-methyl-2,3-dihydro-4H-1,3-benzoxazin-4-one] | 103 | 4.6 |  | 
12 | Cc1c(Cc2ccc(-n3cccn3)nc2)cc2c(c1C)OCN([C@H]1COCC[C@@H]1O)C2=O [Example 98, 1,5-anhydro-2,4-dideoxy-2-(7,8-dimethyl-4-oxo-6-((6-(1H-pyrazol-1-yl)pyridin-3-yl)methyl)-2H-1,3-benzoxazin-3(4H)-yl)-L-threo-pentitol] | 103 | 4.9 |  | 
13 | Cc1c(Cc2ccc(-c3ccn(C)n3)nc2)cc2c(c1Cl)OCN([C@H]1CCC[C@@H]1O)C2=O [Example 99, 8-chloro-3-((1S,2S)-2-hydroxycyclopentyl)-7-methyl-6-((6-(1-methyl-1H-pyrazol-3-yl)pyridin-3-yl)methyl)-2,3-dihydro-4H-1,3-benzoxazin-4-one] | 97 | 2.9 |  | 
14 | Cc1c(Cc2ccc(-c3ccn(C)n3)cc2)cc2c(c1C)OCN([C@H]1COCC[C@@H]1O)C2=O [Example 100, 1,5-anhydro-2,4-dideoxy-2-(7,8-dimethyl-6-(4-(1-methyl-1H-pyrazol-3-yl)benzyl)-4-oxo-2H-1,3-benzoxazin-3(4H)-yl)-L-threo-pentitol] | 99 | 4.4 |  | 
15 | Cc1c(Cc2ccc(-n3cccn3)cc2)cc2c(c1F)OCN(CC(C)(C)O)C2=O [Example 101, 8-fluoro-3-(2-hydroxy-2-methylpropyl)-7-methyl-6-(4-(1H-pyrazol-1-yl)benzyl)-2,3-dihydro-4H-1,3-benzoxazin-4-one] | 91 | 61 |  | 
16 | Cc1c(Cc2ccc(-n3cccn3)nc2)cc2c(c1F)OCN([C@H]1COCC[C@@H]1O)C2=O [Example 102, 1,5-anhydro-2,4-dideoxy-2-(8-fluoro-7-methyl-4-oxo-6-((6-(1H-pyrazol-1-yl)pyridin-3-yl)methyl)-2H-1,3-benzoxazin-3(4H)-yl)-L-threo-pentitol] | 98 | 8.7 |  | 
17 | Cc1cc2c(cc1Cc1ccc(-n3cccn3)nc1)C(=O)N([C@H]1COCC[C@@H]1O)CO2 [Example 103, 1,5-anhydro-2,4-dideoxy-2-(7-methyl-4-oxo-6-((6-(1H-pyrazol-1-yl)pyridin-3-yl)methyl)-2H-1,3-benzoxazin-3(4H)-yl)-L-threo-pentitol] | 103 | 15 |  | 
18 | Cc1cc(-c2ccc(Cc3cc4c(c(F)c3C)OCN([C@H]3CCC[C@@H]3O)C4=O)cc2)cnn1 [Example 105, 8-fluoro-3-((1S,2S)-2-hydroxycyclopentyl)-7-methyl-6-(4-(6-methylpyridazin-4-yl)benzyl)-2,3-dihydro-4H-1,3-benzoxazin-4-one hydrochloride] | 98 | 5.6 |  | 
19 | O=C1c2cc(Cc3ccc(Cl)nc3)c3ccccc3c2OCN1[C@H]1COCC[C@@H]1O [Example 125, 1,5-anhydro-2-(6-((6-chloropyridin-3-yl)methyl)-4-oxo-2H-naphtho[2,1-e][1,3]oxazin-3(4H)-yl)-2,4-dideoxy-L-threo-pentitol] |  |  | 89 | 3.8
20 | Cc1ccc(Cc2cc3c(c4ccccc24)OCN([C@H]2COCC[C@@H]2O)C3=O)cn1 [Example 133, 1,5-anhydro-2,4-dideoxy-2-(6-((6-methylpyridin-3-yl)methyl)-4-oxo-2H-naphtho[2,1-e][1,3]oxazin-3(4H)-yl)-L-threo-pentitol] |  |  | 91 | 3.6
21 | Cc1ccc(Cc2cc3c(c(C)c2C)OCN([C@H]2COCC[C@@H]2O)C3=O)cn1 [Example 137, 1,5-anhydro-2,4-dideoxy-2-(7,8-dimethyl-6-((6-methylpyridin-3-yl)methyl)-4-oxo-2H-1,3-benzoxazin-3(4H)-yl)-L-threo-pentitol] |  |  | 104 | 14
